SMILES strings stand for the structures.

This is an account of results in US20160198705A1, “APPLICATION OF BISPHENOL SALT IN PREPARING DISINFECTANT USED FOR STERILIZATION OR FORMALDEHYDE REMOVAL” (NINGBO YUCHEN ENVIROCLEAN TECH CO., LTD., priority 2013, published 2016).

Assay [1] relates to Staphylococcus aureus. Briefly: Kirby-Bauer diffusion detection of sterilization capability (zone without bacterial growth around the filter paper). It counts as cell-based. The settings on record: for sterilization effect without oxygen ventilation (diameter, mm): pH 10, no ventilation of oxygen.
In assay [2] the test system is Staphylococcus aureus. Described as above. Format: cell-based. As to the method:
In catalyst screening, Staphylococcus aureus was used as the microorganisms, and a trypsin soybean agar was used as a culture medium. The material powder to be screened was prepared into a homogeneous mixture solution by pure water in a 5% weight/volume ratio (i.e., 5 g powder/100 mL water) (in rare cases of low solubility, firstly dissolved with a small amount of glycerol, then diluted with pure water), then immersed with a neutral precise filtration filter paper of 5 mm diameter for about 10 seconds, then placed into a Kirby-Bauer diffusion detection plate. A Kirby-Bauer diffusion detection plate was placed in a sealed glass cover, and the air was provided into the glass cover at a speed of about 10 liters per minute. The sterilizing capability of the catalyst was measured by the diameter of the zone without bacterial growth around the filter paper.
A variety of bisphenol salts were respectively prepared into a water solution with a mass concentration being 5%, and the pH was controlled to 10. The sterilization capability was still detected by Kirby-Bauer diffusion detection method in which Staphylococcus aureus was […] used as the microorganisms, respectively including two cases of no ventilation of oxygen and ventilation of oxygen. When oxygen was ventilated, the condition for oxygen ventilation was the same, the temperature was room temperature (25[…]) and 37[…].
The sterilization capability was detected by Kirby-Bauer diffusion detection method in which Staphylococcus aureus was still used as the microorganisms, and the condition for oxygen ventilation was identical, the temperature was room temperature (25[…]) and 37[…].
Ortho-bisphenol potassium was respectively prepared to form water solutions with a concentration of 5% and pH value of 6, 7, 8, 8.5, 9, 9.5, 10, 10.5, 11, 11.5, 12. The sterilization capability was detected by Kirby-Bauer diffusion detection method in which Staphylococcus aureus was still used as the microorganisms, the condition for oxygen ventilation was identical, the temperature was room temperature (25[…]) and 37[…].

[3] abbreviates: 5% water solution, pH 10, oxygen ventilation.
Setting [4] is: 5% weight/volume in pure water, air provided at about 10 liters per minute.
Setting [5] is: concentration 1.0%, pH 10, oxygen ventilation.
The mark [6] stands for this setting: concentration 5%, pH 10, oxygen ventilation.
[7] abbreviates: concentration 10%, pH 10, oxygen ventilation.
The mark [8] stands for this setting: pH 6, concentration 5%, oxygen ventilation.
[9] abbreviates: pH 8.5, concentration 5%, oxygen ventilation.
Where [10] appears, read: pH 9, concentration 5%, oxygen ventilation.
[11] abbreviates: pH 10, concentration 5%, oxygen ventilation.
The mark [12] stands for this setting: concentration 0.5%, pH 10, oxygen ventilation.
The mark [13] stands for this setting: concentration 2.0%, pH 10, oxygen ventilation.
[14] abbreviates: concentration 15%, pH 10, oxygen ventilation.
The mark [15] stands for this setting: concentration 20%, pH 10, oxygen ventilation.
[16] abbreviates: pH 7, concentration 5%, oxygen ventilation.
Where [17] appears, read: pH 8, concentration 5%, oxygen ventilation.
Setting [18] is: pH 9.5, concentration 5%, oxygen ventilation.
The mark [19] stands for this setting: pH 10.5, concentration 5%, oxygen ventilation.
The mark [20] stands for this setting: pH 11, concentration 5%, oxygen ventilation.
Where [21] appears, read: pH 11.5, concentration 5%, oxygen ventilation.
Where [22] appears, read: pH 12, concentration 5%, oxygen ventilation.

Turning to `[K+].[K+].[O-]c1cccc(Oc2cccc([O-])c2)c1`, the “sterilization effect without oxygen ventilation (diameter, mm)” value in the assay on Staphylococcus aureus [1] (5% water solution) turned out to be 6 mm. In addition, in the assay with Staphylococcus aureus [1] (setting [3]), the “sterilization effect at 25[…] (diameter, mm)” value was found to be 16 mm and the “sterilization effect at 37[…] (diameter, mm)” value was 18 mm.
Take `[K+].[K+].[O-]c1ccccc1-c1cc(Cl)ccc1[O-]`: in the assay on Staphylococcus aureus [1] (5% water solution), the “sterilization effect without oxygen ventilation (diameter, mm)” value was 3 mm. Further, in the assay with Staphylococcus aureus [1] (setting [3]), the “sterilization effect at 25[…] (diameter, mm)” value came out at 19 mm and the “sterilization effect at 37[…] (diameter, mm)” value came to 19 mm.
In the case of `[K+].[K+].[O-]c1cccc(-c2cccc([O-])c2)c1`, the “sterilization effect without oxygen ventilation (diameter, mm)” value with Staphylococcus aureus [1] (5% water solution) came to 2 mm. Further, in the assay on Staphylococcus aureus [1] (setting [3]), the “sterilization effect at 25[…] (diameter, mm)” value is listed as 20 mm and the “sterilization effect at 37[…] (diameter, mm)” value was found to be 19 mm.
As to `O=C(O)c1ccc(-c2ccccc2[O-])c([O-])c1.[K+].[K+]`, in the assay with Staphylococcus aureus [1] (5% water solution), the “sterilization effect without oxygen ventilation (diameter, mm)” value amounted to 2 mm. In the assay on Staphylococcus aureus [1] (setting [3]), the “sterilization effect at 25[…] (diameter, mm)” value is listed as 19 mm and the “sterilization effect at 37[…] (diameter, mm)” value is on record as 19 mm.
`[Na+].[Na+].[O-]c1ccccc1-c1ccccc1[O-]` [2,2′-ortho-bisphenol sodium]: the inhibition zone diameter in the assay on Staphylococcus aureus [1] (setting [4]) was 15 mm.
For the compound `[Na+].[Na+].[O-]c1ccccc1Oc1ccccc1[O-]`, the “sterilization effect without oxygen ventilation (diameter, mm)” value in the assay on Staphylococcus aureus [1] (5% water solution) came to 5 mm. Moreover, in the assay with Staphylococcus aureus [1] (setting [3]), the “sterilization effect at 25[…] (diameter, mm)” value came to 17 mm and the “sterilization effect at 37[…] (diameter, mm)” value is recorded as 19 mm.
Take `[Cl-].[Na+]` [sodium chloride, reference compound]: the sterilization effect result in the assay on Staphylococcus aureus [1] (setting [4]) is listed as “essentially had no effect”.
Take `[K+].[K+].[O-]c1ccccc1-c1ccccc1[O-]` [ortho-bisphenol potassium]: the “sterilization effect at 25[…] (diameter, mm)” value with Staphylococcus aureus [2] (setting [5]) came out at 11 mm; with Staphylococcus aureus [2] (setting [7]), 20 mm; in the assay on Staphylococcus aureus [2] (setting [8]), 5 mm; in the assay with Staphylococcus aureus [2] (setting [10]) it was 15 mm; with Staphylococcus aureus [2] (setting [11]), 19 mm; in the assay with Staphylococcus aureus [1] (setting [3]), 18 mm. For the same compound, the “sterilization effect at 25[…] (diameter, mm)” value in the assay on Staphylococcus aureus [1] (setting [12]) was 8 mm; in the assay with Staphylococcus aureus [1] (setting [13]), 14 mm; in the assay with Staphylococcus aureus [1] (setting [6]), 18 mm; in the assay with Staphylococcus aureus [1] (setting [14]) it was 19 mm; with Staphylococcus aureus [1] (setting [15]), 17 mm; with Staphylococcus aureus [1] (setting [16]), 5 mm. For the same compound, the “sterilization effect at 25[…] (diameter, mm)” value with Staphylococcus aureus [1] (setting [17]) worked out at 8 mm; in the assay on Staphylococcus aureus [1] (setting [9]) it was 13 mm; with Staphylococcus aureus [1] (setting [18]), 16 mm; in the assay with Staphylococcus aureus [1] (setting [19]) it was 18 mm; in the assay with Staphylococcus aureus [1] (setting [20]) it was 18 mm; in the assay on Staphylococcus aureus [1] (setting [21]) it was 20 mm. In addition, in the assay on Staphylococcus aureus [1] (setting [22]), the “sterilization effect at 25[…] (diameter, mm)” value is 20 mm. Also, the “sterilization effect at 37[…] (diameter, mm)” value with Staphylococcus aureus [2] (setting [6]) amounted to 19 mm; in the assay with Staphylococcus aureus [2] (setting [9]) it was 14 mm; with Staphylococcus aureus [2] (setting [11]) it was 20 mm; in the assay on Staphylococcus aureus [1] (setting [3]) it was 19 mm; in the assay on Staphylococcus aureus [1] (setting [12]), 9 mm; in the assay on Staphylococcus aureus [1] (setting [5]), 10 mm. Also, the “sterilization effect at 37[…] (diameter, mm)” value with Staphylococcus aureus [1] (setting [13]) is recorded as 16 mm; with Staphylococcus aureus [1] (setting [7]), 20 mm; in the assay with Staphylococcus aureus [1] (setting [14]), 18 mm; in the assay with Staphylococcus aureus [1] (setting [15]), 19 mm; in the assay with Staphylococcus aureus [1] (setting [8]), 5 mm; in the assay with Staphylococcus aureus [1] (setting [16]) it was 6 mm. For the same compound, the “sterilization effect at 37[…] (diameter, mm)” value with Staphylococcus aureus [1] (setting [17]) was found to be 9 mm; with Staphylococcus aureus [1] (setting [10]), 16 mm; in the assay on Staphylococcus aureus [1] (setting [18]), 16 mm; in the assay on Staphylococcus aureus [1] (setting [19]), 20 mm; with Staphylococcus aureus [1] (setting [20]), 19 mm; with Staphylococcus aureus [1] (setting [21]), 19 mm. Besides, in the assay on Staphylococcus aureus [1] (setting [22]), the “sterilization effect at 37[…] (diameter, mm)” value worked out at 20 mm. Also, in the assay on Staphylococcus aureus [1] (5% water solution), the “sterilization effect without oxygen ventilation (diameter, mm)” value stood at 3 mm.
Take `O=S(=O)([O-])[O-].[Na+].[Na+]` [sulfate sodium, reference compound]: the sterilization effect entry with Staphylococcus aureus [1] (setting [4]) was “essentially had no effect”.
